# Reference: patent publication US20260285872A1, “COMPOUNDS AND METHODS FOR DEGRADING GSPT1” (priority 2023, published 2026)
# Assays:
# A549 cells = assay: NSCLC cell viability, CellTiter-Glo, A549 cells; type: cell-based; settings: Homo sapiens, 72 hours of treatment, read-out: Cell viability classification
# Procedure: A549 cells were obtained from Korean Cell Line Bank (KCLB) and grown in RPMI supplemented with 10% FBS. The cells were maintained at 37° C. under 5% CO2.
# The efficacy of the present disclosure to reduce viability of Non-Small Cell Lung Cancer (NSCLC) cells was assessed using CellTiter-Glo Cell Viability Assay (Promega) according to the manufacturer's protocol. […] The luminescence was normalized to that of DMSO-treated samples. IC50 values were obtained using three-parameter non-linear regressions using Prism (GraphPad).
# The efficacy of additional compounds of the present disclosure in reducing A549 cell viability was determined by treating A549 cells at various concentrations (final DMSO concentration of 0.1%). Cell viability was measured using the CellTiter-Glo reagent after 72 hours of treatment.
# GSPT1 = GSPT1 (Homo sapiens, UniProt P15170+Q96SW2); assay: GSPT1 degradation, Western Blot, A549 cells, 1 μM, 16 hours; type: cell-based; settings: % reduction of GSPT1 compared to DMSO, normalized to GAPDH, read-out: GSPT1 degradation classification
# GSPT1, sequence (P15170 whole entry): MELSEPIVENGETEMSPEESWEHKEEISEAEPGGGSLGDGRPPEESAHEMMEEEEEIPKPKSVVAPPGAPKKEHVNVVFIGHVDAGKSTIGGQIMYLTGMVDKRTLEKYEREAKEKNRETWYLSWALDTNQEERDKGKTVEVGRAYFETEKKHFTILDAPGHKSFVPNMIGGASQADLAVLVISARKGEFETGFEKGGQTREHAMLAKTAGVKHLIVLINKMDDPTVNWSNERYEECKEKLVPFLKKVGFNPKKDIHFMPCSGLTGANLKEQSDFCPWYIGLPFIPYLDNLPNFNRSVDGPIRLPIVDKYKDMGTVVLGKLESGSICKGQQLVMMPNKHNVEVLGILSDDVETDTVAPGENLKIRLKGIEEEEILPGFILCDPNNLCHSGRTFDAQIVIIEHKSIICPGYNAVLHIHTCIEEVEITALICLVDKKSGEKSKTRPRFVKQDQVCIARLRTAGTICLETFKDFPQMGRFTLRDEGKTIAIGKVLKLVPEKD
# GSPT1, sequence (Q96SW2 whole entry): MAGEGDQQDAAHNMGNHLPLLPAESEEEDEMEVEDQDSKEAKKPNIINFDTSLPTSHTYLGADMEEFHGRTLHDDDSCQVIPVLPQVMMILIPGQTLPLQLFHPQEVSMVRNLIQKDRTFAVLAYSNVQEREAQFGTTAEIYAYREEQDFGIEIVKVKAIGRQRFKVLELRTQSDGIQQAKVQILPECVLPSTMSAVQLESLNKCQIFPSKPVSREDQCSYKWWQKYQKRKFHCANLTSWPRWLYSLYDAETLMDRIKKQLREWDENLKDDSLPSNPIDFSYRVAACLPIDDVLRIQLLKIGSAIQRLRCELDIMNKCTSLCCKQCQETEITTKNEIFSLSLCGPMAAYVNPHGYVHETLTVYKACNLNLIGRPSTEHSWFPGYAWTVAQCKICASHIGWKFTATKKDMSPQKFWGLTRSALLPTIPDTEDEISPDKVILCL
# GSPT1, sequence (Q16531 whole entry partner): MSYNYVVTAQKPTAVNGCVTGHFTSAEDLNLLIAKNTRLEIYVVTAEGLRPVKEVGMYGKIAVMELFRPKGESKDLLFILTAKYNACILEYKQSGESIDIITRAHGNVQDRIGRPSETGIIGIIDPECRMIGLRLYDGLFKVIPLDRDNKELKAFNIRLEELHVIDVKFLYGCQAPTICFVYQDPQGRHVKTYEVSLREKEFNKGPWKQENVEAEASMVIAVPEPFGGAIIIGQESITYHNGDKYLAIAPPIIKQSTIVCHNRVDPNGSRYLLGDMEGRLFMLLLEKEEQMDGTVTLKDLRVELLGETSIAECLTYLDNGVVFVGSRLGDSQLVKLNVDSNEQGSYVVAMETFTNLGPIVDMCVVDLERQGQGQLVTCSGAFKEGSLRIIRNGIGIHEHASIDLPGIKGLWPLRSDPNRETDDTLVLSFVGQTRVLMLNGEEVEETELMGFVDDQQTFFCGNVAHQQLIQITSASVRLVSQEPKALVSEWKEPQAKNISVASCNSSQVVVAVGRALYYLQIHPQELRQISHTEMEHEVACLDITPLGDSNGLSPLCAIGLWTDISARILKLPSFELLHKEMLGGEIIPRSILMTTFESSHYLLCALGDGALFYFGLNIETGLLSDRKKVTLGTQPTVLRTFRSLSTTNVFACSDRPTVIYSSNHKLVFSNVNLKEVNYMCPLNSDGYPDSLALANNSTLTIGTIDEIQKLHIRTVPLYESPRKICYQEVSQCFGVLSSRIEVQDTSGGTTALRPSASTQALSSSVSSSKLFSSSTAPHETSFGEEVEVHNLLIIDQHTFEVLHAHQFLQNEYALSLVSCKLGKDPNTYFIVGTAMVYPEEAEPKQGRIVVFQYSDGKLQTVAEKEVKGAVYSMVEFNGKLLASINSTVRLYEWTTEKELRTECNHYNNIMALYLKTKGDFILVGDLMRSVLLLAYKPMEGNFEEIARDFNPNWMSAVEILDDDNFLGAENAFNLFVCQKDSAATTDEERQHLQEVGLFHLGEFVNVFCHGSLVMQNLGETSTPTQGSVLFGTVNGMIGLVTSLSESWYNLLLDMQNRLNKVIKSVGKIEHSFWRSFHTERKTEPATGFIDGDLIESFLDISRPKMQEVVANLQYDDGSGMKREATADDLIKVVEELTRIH
# Procedure: Compounds of the present disclosure was added to cells (final DMSO concentration of 0.1%) and incubated for 16 hours. GSPT1 levels were determined in A549 cells using Western Blot analysis. […] Protein levels were normalized to GAPDH levels.
# The efficacy of GSPT1 degradation of a part of compounds of the present disclosure was determined by treating A549 cells at 1 μM (final DMSO concentration of 0.1%) for 16 hours. GSPT1 levels were determined using Western Blot and normalized to GAPDH levels.
Compound,IC50 (A549 cells) [nM],inhibition at 1 µM (GSPT1) [%]
"O=C1CCC(N2Cc3cc(C(=O)NC4CCCCC4)ccc3C2=O)C(=O)N1 (stereo not shown) [Example 96, N-cyclohexyl-2-(2,6-dioxopiperidin-3-yl)-1-oxoisoindoline-5-carboxamide]",1000 to 30000,50 to 75
"O=C1CCC(N2Cc3cc(C(=O)Nc4csc5ccccc45)c(F)cc3C2=O)C(=O)N1 (stereo not shown) [Example 91, N-(benzo[b]thiophen-3-yl)-2-(2,6-dioxopiperidin-3-yl)-6-fluoro-1-oxoisoindoline-5-carboxamide]",< 1000,> 75
